# Tests used:
# barnyardgrass [1] = experiment: Test Example 2: soil surface treatment, upland pot test; assay type: in vivo, Echinochloa crus-galli L.; conditions: active ingredient 500 g/ha
# Excerpt: (§1) Upland field soil was put into a 1/170,000 ha pot, and seed of various plants (barnyardgrass, crabgrass, green foxtail, redroot pigweed, prickly sida, velvetleaf, rice, wheat, corn, soybean) were sown. On the 1st day after the sowing, a wettable powder or emulsifiable concentrate having the compound of the present invention formulated in accordance with a usual formulation method, was weighed so that the active ingredient would be a predetermined amount, and diluted with water in an amount of 1,500 L/ha. The herbicide thus adjusted was applied by a small size sprayer for soil surface treatment. On the 20th to 28th days after the application of the herbicide, the growth of the respective plants was visually observed, and the herbicidal effects were evaluated by the growth controlling degrees (%) ranging from 0 (equivalent to the non-treated plot) to 100 (complete kill), whereby the results shown in Table 4, were obtained.
# crabgrass = experiment: as above; assay type: in vivo, Digitaria sanguinalis L.; conditions: active ingredient 500 g/ha
# Excerpt: as §1
# green foxtail = experiment: as above; assay type: in vivo, Setaria viridis L.; conditions: active ingredient 500 g/ha
# Excerpt: as §1
# redroot pigweed = experiment: as above; assay type: in vivo, Amaranthus retroflexus L.; conditions: active ingredient 500 g/ha
# Excerpt: as §1
# prickly sida = experiment: as above; assay type: in vivo, Sida spinosa L.; conditions: active ingredient 500 g/ha
# Excerpt: as §1
# velvetleaf = experiment: as above; assay type: in vivo, Abutilon theophrasti MEDIC.; conditions: active ingredient 500 g/ha
# Excerpt: as §1
# rice = experiment: as above; assay type: in vivo, Oryza sativa L.; conditions: active ingredient 500 g/ha
# Excerpt: as §1
# corn = experiment: as above; assay type: in vivo, Zea mays L.; conditions: active ingredient 500 g/ha
# Excerpt: as §1
# soybean = experiment: as above; assay type: in vivo, Glycine max Merr.; conditions: active ingredient 500 g/ha
# Excerpt: as §1
# barnyardgrass [2] = experiment: Test Example 3: paddy pot test, application under submerged conditions; assay type: in vivo, Echinochloa crus-galli L.; conditions: active ingredient 250 g/ha; submerged application at 0.5 leaf stage; visually observed 14 days after application; 0 = non-treated, 100 = complete kill
# Summary of the method: (§2)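 Visual rating of growth control (0% equals untreated, 100% complete kill) made 14 days after treatment. Compound, formulated as wettable powder or emulsifiable concentrate and diluted in water, was pipetted under submerged conditions at predetermined active-ingredient doses once weeds reached 0.5-leaf (barnyardgrass, bulrush) or primary-leaf (wapato, from tubers) stage. Pots of greenhouse paddy soil held 3–4 cm flooding.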
# japanese bulrush = experiment: as above; assay type: in vivo, Scirpus juncoides; conditions: active ingredient 250 g/ha; submerged application at 0.5 leaf stage; visually observed 14 days after application; 0 = non-treated, 100 = complete kill
# Summary of the method: as §2
# japanese ribbon wapato = experiment: as above; assay type: in vivo, Sagittaria pygniaea; conditions: active ingredient 250 g/ha; submerged application at primary leaf stage; visually observed 14 days after application; 0 = non-treated, 100 = complete kill
# Summary of the method: as §2
# rice (var. Nihonbare) = experiment: Test Example 3: paddy pot test, transplanted rice; assay type: in vivo, Oryza sativa L.; conditions: active ingredient 250 g/ha, applied 4th day after transplantation, visually observed 21st day after application, 0 = non-treated, 100 = complete kill
# Summary of the method: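 Visual crop-injury rating (0 = as untreated, 100 = complete kill, %) taken 21 days post-application. Treatment: formulated compound, water-diluted, pipetted into 3–4 cm flood water at a preset active-ingredient dose, 4 days after transplanting 2-leaf Nihonbare rice 3 cm deep in puddled paddy soil.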
# [3] = observed day 21, 0 = non-treated, 100 = complete kill
SMILES,Growth controlling degree (%) Barnyardgrass (barnyardgrass [1]; observed 20th to 28th day),Growth controlling degree (%) Crabgrass (crabgrass; observed 20th to 28th day),Growth controlling degree (%) Green foxtail (green foxtail; observed 20th to 28th day),Growth controlling degree (%) Redroot pigweed (redroot pigweed; observed 20th to 28th day),Growth controlling degree (%) Prickly sida (prickly sida; observed 20th to 28th day),Growth controlling degree (%) Velvetleaf (velvetleaf; observed 20th to 28th day),Growth controlling degree (%) Rice (rice; observed 20th to 28th day),Growth controlling degree (%) Corn (corn; observed 20th to 28th day),Growth controlling degree (%) Soyabean (soybean; observed 20th to 28th day),Growth controlling degree (%) Barnyardgrass (barnyardgrass [2]),Growth controlling degree (%) Japanese bulrush (japanese bulrush),Growth controlling degree (%) Japanese ribbon wapato (japanese ribbon wapato),Growth controlling degree (%) Rice (rice (var. Nihonbare)),further results
CCN(C(=O)Cc1ccc(Cl)cc1)C(c1cnccc1C(F)(F)F)C(C)C (centres unmarked) [Compound I-100],98%,98%,100%,10%,70%,10%,30%,30%,0%,100%,95%,30%,10%,
Cc1cc(Cl)ccc1OCC(=O)N(C)C(c1cnccc1C(F)(F)F)C(C)C (centres unmarked) [I-234],95%,98%,70%,70%,50%,30%,10%,0%,0%,100%,90%,40%,0%,
CCN(C(=O)Cc1ccc(C(F)(F)F)cc1)C(c1cnccc1C(F)(F)F)C(C)C (centres unmarked) [Compound I-79],100%,100%,100%,80%,100%,80%,10%,10%,10%,100%,70%,40%,20%,
CC(C)C(c1cnccc1Cl)N(C)C(=O)Cc1ccc(Cl)cc1 (centres unmarked) [I-82],80%,90%,70%,60%,0%,0%,30%,10%,0%,98%,98%,0%,30%,
CCN(C(=O)Cc1ccccc1)C(c1cnccc1Cl)C(C)C (centres unmarked) [Compound I-102],100%,98%,100%,20%,60%,0%,10%,35%,20%,98%,100%,60%,10%,
CC(C)C(c1cnccc1C(F)(F)F)N(C)C(=O)COc1cccc(F)c1 (centres unmarked) [Compound I-242],98%,98%,100%,90%,98%,70%,10%,40%,10%,100%,95%,70%,0%,
CC(C)C(c1cnccc1C(F)(F)F)N(C)C(=O)Cc1cc(F)cc(C(F)(F)F)c1 (centres unmarked) [Compound I-97],60%,98%,100%,60%,90%,40%,40%,20%,10%,100%,80%,0%,0%,
COc1ccc(OCC(=O)N(C)C(c2cnccc2C(F)(F)F)C(C)C)cc1 (centres unmarked) [I-244],50%,80%,80%,60%,60%,0%,20%,30%,0%,100%,95%,50%,0%,
CCc1ccc(OCC(=O)N(C)C(c2cnccc2C(F)(F)F)C(C)C)cc1 (centres unmarked) [I-249],,,,,,,,,,98%,98%,0%,0%,Growth controlling degree (%) Barnyardgrass (barnyardgrass [1]; [3]): 95%; Growth controlling degree (%) Crabgrass (crabgrass; [3]): 98%; Growth controlling degree (%) Green foxtail (green foxtail; [3]): 98%; Growth controlling degree (%) Redroot pigweed (redroot pigweed; [3]): 60%; Growth controlling degree (%) Prickly sida (prickly sida; [3]): 80%; Growth controlling degree (%) Velvetleaf (velvetleaf; [3]): 50%; Growth controlling degree (%) Rice (rice; [3]): 20%; Growth controlling degree (%) Corn (corn; [3]): 20%; Growth controlling degree (%) Soyabean (soybean; [3]): 20%
CC(C)C(c1cnccc1C(F)(F)F)N(C)C(=O)COc1ccc(F)cc1F (centres unmarked) [Compound I-246],,,,,,,,,,100%,98%,70%,10%,Growth controlling degree (%) Barnyardgrass (barnyardgrass [1]; [3]): 98%; Growth controlling degree (%) Crabgrass (crabgrass; [3]): 95%; Growth controlling degree (%) Green foxtail (green foxtail; [3]): 98%; Growth controlling degree (%) Redroot pigweed (redroot pigweed; [3]): 50%; Growth controlling degree (%) Prickly sida (prickly sida; [3]): 80%; Growth controlling degree (%) Velvetleaf (velvetleaf; [3]): 30%; Growth controlling degree (%) Rice (rice; [3]): 20%; Growth controlling degree (%) Corn (corn; [3]): 40%; Growth controlling degree (%) Soyabean (soybean; [3]): 40%
CCc1ccc(CC(=O)N(C)C(c2cnccc2C(F)(F)F)C(C)C)cc1 (centres unmarked) [I-95],95%,98%,90%,60%,80%,30%,10%,10%,30%,100%,98%,20%,0%,
